#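 Five compound concentrations were applied to cells in 96-well plates for 48 hours; endpoints were derived by simple linear interpolation of the resulting dose-response curve. GI50 is the concentration that inhibits growth by half. TGI denotes the concentration required for complete inhibition of growth.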
# Experiments:
# Experiment in all cases: DTP human tumour cell line panel, 48 h
# [1] = tested on: EKVX NSCLC
# [2] = tested on: SF-539 CNS
# [3] = tested on: SNB-75 CNS
# [4] = tested on: RPMI-8226 leukemia
# [5] = tested on: HCT-116 colon
# [6] = tested on: UACC-62 melanoma
# [7] = tested on: SF-295 CNS
# [8] = tested on: NCI-H23 lung
# [9] = tested on: LOX IMVI melanoma
# [10] = tested on: HS 578T breast
Structure (SMILES),TGI [1] [µM],TGI [2] [µM],TGI [3] [µM],TGI [4] [µM],TGI [5] [µM],TGI [6] [µM],TGI [7] [µM],TGI [8] [µM],TGI [9] [µM],GI50 [2] [µM],GI50 [3] [µM],GI50 [4] [µM],GI50 [5] [µM],GI50 [6] [µM],GI50 [7] [µM],GI50 [8] [µM],GI50 [10] [µM],TGI [10] [µM],GI50 [9] [µM],GI50 [1] [µM]
COC(=O)CCC(NC(=S)N/N=C(\C)c1ccccn1)C(=O)OC (stereo not drawn),> 100,> 100,> 100,> 100,> 100,> 100,> 100,> 100,> 100,,,,,,,,,,,
C=C1C(=O)OC2CCCCC3OC3C12 (stereo not drawn),34.6,28.1,59.1,27.4,13,13.7,48.6,32.6,31.9,,,,,,,,,,,
COC(=O)C(C(=O)C(=O)Nc1cccc(O)c1)c1nc2ccc(Cl)cc2[nH]c1=O (stereo not drawn),> 100,> 100,> 100,> 100,> 100,> 100,> 100,> 100,> 100,,,,,,,,,,,
O=C(c1cc(=O)c2ccc(O)cc2o1)c1ccc(Cl)cc1Cl,99.3,> 25.4,> 100,> 72.7,> 54.1,> 100,> 65.9,> 73.3,> 59.1,,,,,,,,,,,
O=C1NC(=NCC(CO)c2ccccc2)S/C1=C\c1ccc2ncccc2c1 (stereo not drawn),,> 25,> 25,> 25,> 25,> 25,> 25,> 25,> 25,11.2,> 7,14.6,8.51,> 25,> 25,12.1,14.7,> 25,17.4,
CCOc1ccccc1NC(=O)C(=O)CC(=O)C1=C(C)Nc2ccccc2S1,> 100,> 100,> 100,> 100,> 100,> 100,> 100,> 100,> 100,,,,,,,,,,,
O=[N+]([O-])c1cccc(C2SCc3nc4ccccc4n32)c1 (stereo not drawn),> 100,> 100,,,,> 100,> 100,> 100,> 100,,,,,,,,,,,
CC(C)c1cc(C(C)C)c(S(=O)(=O)NN)c(C(C)C)c1,> 100,> 100,> 100,> 100,> 100,> 100,> 100,> 100,> 100,,,,,,,,,,,
C/C=C/C=N/N(c1nnc(-c2ccccc2)c(-c2ccccc2)n1)S(=O)(=O)c1ccc(C)cc1,31.9,23.8,19.9,36.6,28,11.6,22.9,29.7,13.8,,,,,,,,,,,
CC(=O)OC1(C#N)CC2OC1C1C2N1C(=O)c1ccccc1 (stereo not drawn),> 100,> 100,> 100,> 100,> 100,> 100,,> 100,> 100,,,,,,,,,,,
C/C(CN1C(=O)c2ccccc2C1=O)=N\NS(=O)(=O)c1ccccc1,> 100,> 100,> 100,> 100,> 100,> 100,> 100,> 100,> 100,,,,,,,,,,,
CCOC(=O)C1=C(Nc2ccccc2)OC/C1=N\NC(=O)Cc1ccccc1,> 50,> 50,> 50,> 50,> 50,> 50,> 50,> 50,> 50,,,,,,,,,,,
NC(=S)N/N=C(/CC(=O)c1ccc([N+](=O)[O-])cc1)C(=O)Nc1ncc([N+](=O)[O-])s1,> 100,,> 100,> 100,> 100,> 100,> 100,> 100,> 100,,,,,,,,,,,
O=S(=O)(NCCNc1nccc(-c2c(-c3cccc(O)c3)nc3sccn23)n1)c1ccc(F)cc1,,24.6,34.9,22.7,27.1,10.3,,38.2,20.1,5.23,1.2,4.26,3.26,0.26,,11.1,2.93,11.7,4.11,
Cc1cc2c3ccccc3n(C)c2c2c1C(=O)c1ccccc1C2=O,> 100,> 100,> 100,,32.4,57.3,41.2,44,,,,,,,,,,,,
O=C(c1cc2ccccc2[nH]1)C(O)(c1cc2ccccc2[nH]1)c1cc2ccccc2[nH]1,> 246,> 246,,> 246,> 246,> 246,> 246,> 246,> 246,,,,,,,,,,,
Cc1c2ccccc2c(C)c2c3c(ccc12)C(=O)C=CC3=O,> 85,> 100,> 100,60.6,49.7,> 100,> 31.6,> 85.4,> 63.4,,,,,,,,,,,
O=C(CCc1nnc2s/c(=C\c3ccccc3)c(=O)n12)Nc1cc(Cl)ccc1Cl,> 100,> 100,> 100,> 100,66.9,> 100,> 100,> 100,> 100,,,,,,,,,,,
Fc1ccc(-c2nc(-c3nc4ccc(Cl)cc4[nH]3)cc3c2[nH]c2ccccc23)cc1,,13.8,,6.58,12.5,6.9,,21.1,6.63,3.55,,1.84,3.29,2.28,,3.66,3.38,57,2.41,
O=C(CC(=O)N1N=C(n2ccc3ccccc32)CC1c1ccccc1)Nc1cccc(Cl)c1 (stereo not drawn),> 100,> 100,> 100,> 100,> 100,> 100,> 100,> 100,> 100,,,,,,,,,,,
Cc1cc(C)nc(NS(=O)(=O)c2ccc(Nc3c4ccccc4nc4c(C(=O)NCCN(C)C)ccc(Cl)c34)cc2)n1,15.5,11.5,11,,7.23,3.59,5.91,11.7,2.25,,,,,,,,,,,
COC(=O)/C(C#N)=C\N1CCN(C(=O)c2ccco2)C1=S,28.5,,> 100,62.4,16,27.2,65.1,27.7,8,,15.5,3.3,3.95,10.7,26,13.2,,,2.39,10.2

Structure (SMILES),TGI [1] [µM],TGI [2] [µM],TGI [3] [µM],TGI [4] [µM],TGI [5] [µM],TGI [6] [µM],TGI [7] [µM],TGI [8] [µM],TGI [9] [µM],GI50 [2] [µM],GI50 [3] [µM],GI50 [4] [µM],GI50 [5] [µM],GI50 [6] [µM],GI50 [7] [µM],GI50 [8] [µM],GI50 [10] [µM],TGI [10] [µM],GI50 [9] [µM],GI50 [1] [µM]
OC(c1ccccc1)(c1ccccc1)c1ccccn1,> 100,> 100,> 100,> 100,> 100,> 100,> 100,> 100,> 100,,,,,,,,,,,
C/C(=N/O)C1CC=C(S(=O)(=O)c2ccccc2)C1 (stereo not drawn),,> 100,> 100,> 100,,,> 100,> 100,> 100,,,,,,,,,,,
C=CCC(C(=O)OC)C1(C(=O)OC)c2[nH]c3ccccc3c2CCN1Cc1ccccc1 (stereo not drawn),> 100,> 100,> 100,> 100,> 100,> 100,> 100,> 100,,,,,,,,,,,,
CCC(=O)C1=C(OC(C)=O)C2Cc3c(n(C)c4ccccc34)C(C1)N2C (stereo not drawn),> 100,59.2,> 100,,85.1,> 100,> 100,> 100,> 100,,,,,,,,,,,
COc1ccc(/C=C/c2cc(OC)c(O[Si](C)(C)C(C)(C)C)c(OC)c2)cc1,> 100,> 100,> 100,> 100,> 100,> 100,,> 100,,,,,,,,,,,,
Nc1nc(-c2ccccc2)c(-c2ccccc2)c(-c2nc(N)nc(-c3ccccc3)c2-c2ccccc2)n1,> 100,> 100,> 100,,> 100,> 100,> 100,> 100,> 100,,,,,,,,,> 100,,
CC(=O)NNc1nc(C)c(C(=O)NNC(=O)C(=O)Nc2ccc(C)c(C)c2)s1,> 100,> 100,> 100,> 100,> 100,> 100,> 100,> 100,> 100,,,,,,,,,,,
C/C(=N\NC(=O)CC(=O)Nc1ccc(C)cc1)c1cc2ccccc2oc1=O,> 100,> 100,76.6,> 100,> 100,> 100,> 100,> 100,> 100,,,,,,,,,,,
COc1ccc(/C=C2\N=C(c3ccccc3)OC2=O)c(OCc2ccccc2)c1,> 100,46.6,,> 100,> 100,50,38.6,,> 100,,,,,,,,,,,
CCCCCCCCCCCCCCCCOC(=O)C(C(=O)OCCCCCCCCCCCCCCCC)[N+](C)(C)CCOC(C)=O,43.7,,35.6,,33.1,45.7,35.4,30.3,44.8,,,,,,,,,,,
Cc1ccc(-n2c3c(c4c(CN5CCCCC5)c(O)ccc42)CCc2ccccc2C3=O)cc1,> 100,> 100,,> 100,> 100,> 100,> 100,> 100,> 100,50,,> 100,43.4,97.4,35.8,> 100,> 100,> 100,> 100,> 100
N=C(N)n1ncc(Cl)c(Cl)c1=O,5.07,5.42,9.24,7.55,3.32,5.76,22.6,5.06,,,,,,,,,,,,
CCOC(=O)CC(=O)ON(C)C(=O)Cc1ccccc1,> 100,> 100,,> 100,> 100,> 100,> 100,> 100,> 100,,,,,,,,,,,
CC1=C(C(=O)Nc2cccc(C(F)(F)F)c2)C(c2ccc(O)cc2)C(C(=O)Nc2cccc(C(F)(F)F)c2)=C(C)N1,58.6,60.5,63.9,41.2,28.1,,39.9,35.8,33.1,,,,,,,,,,,
Cc1ccc2nc3c(Cl)cc(=O)cc-3sc2c1,39.1,11.5,57.7,,32.2,31.8,63.2,,,,,,,,,,,,,
O=C(Nc1cccc(Cl)c1)Nc1cccc(Cl)c1,,> 100,44.3,,,> 100,> 100,,> 100,49.1,2.49,,,3.69,3.01,,> 100,> 100,32,
COc1ccc(/C=C/C(=O)c2sc(N)nc2C)cc1,> 100,> 100,> 100,> 100,,> 100,> 100,> 100,> 100,,,,,,,,,,,
CCc1cccc(C(C)CC)c1N=C(NC(=O)c1ccccc1C(=O)NC(=Nc1c(CC)cccc1C(C)CC)SC)SC (stereo not drawn),> 100,68.8,,89.8,> 100,53.5,> 100,> 100,> 100,,,,,,,,,,,
Nc1nnc2nc(CC(=O)/C=C/c3ccccc3)c(=O)[nH]n12,> 100,> 100,> 100,> 100,> 100,> 100,> 100,> 100,> 100,,,,,,,,,,,
CCSC1(SCC)CCN(C=NC(C)(C)C)C1,> 100,> 100,> 100,,> 100,> 100,> 100,> 100,> 100,,,,,,,,,,,
COc1c(OC(C)=O)cc2c(OC(C)=O)c1CC(C)CC(OC)C(O)C(C)/C=C(\C)C(OC(N)=O)C(OC)/C=C\C=C(/C)C(=O)N2 (stereo not drawn),> 100,> 100,> 100,> 80.9,> 100,> 100,> 100,> 100,> 100,,,,,,,,,,,

# From PubChem BioAssay (NCI)
